From patent US20210154359A1, “FIBRILLAR-PROTEIN BASED COMPOSITIONS AND USES THEREOF” (Hi-Aspect Limited, priority 2017, published 2021)
Converted amounts (≈) assume the structure as drawn. Read-outs that look alike come from different tables or passages of the source.

Legend:
[1] = Loading capacity of protein composition C with hydrophilic and hydrophobic agents; assay type: physicochemical; details: in protein composition C, room temperature
[2] = agent in water, in words; cited from earlier work
3T3 = experiment: In Vitro 3T3 NRU Phototoxicity Test (OECD 432); assay type: cell-based; details: for IC50: Mus musculus, NIH3T3, light or radiation study
[3] = loading trial to date, not maximum loading
[4] = read-out: Cell Viability IC50 Minus UVA
[5] = read-out: Cell Viability IC50 Plus UVA

SMILES: O=C(O)c1ccccc1 [Benzoic acid]
- Loading [1, 3]: 10 mg/g

SMILES: CCCCCCCCCCCCCCCC(=O)OC/C=C(C)/C=C/C=C(C)/C=C/C1=C(C)CCCC1(C)C [Retinyl palmitate]
- Loading [1, 3]: 25 mg/g
- Solubility (water) [2]: Insoluble

SMILES: CN(C)CCCN1c2ccccc2Sc2ccc(Cl)cc21 [Chlorpromazine]
- Comment (phototoxicity) (3T3): Phototoxic
- Mean MPE (3T3): 0.510
- Mean PIF (3T3): 70
- IC50 (3T3; [4]): 7 µg/mL (≈ 22 µM)
- IC50 (3T3; [5]): 0.1 µg/mL

SMILES: CC1=C(/C=C/C(C)=C/C=C/C(C)=C/C=O)C(C)(C)CCC1 [Retinal]
- Loading [1, 3]: 1 mg/g
- Solubility (water) [2]: Nearly insoluble

SMILES: Cn1c(=O)c2c(ncn2C)n(C)c1=O [Caffeine]
- Loading ([1]; maximum loading): 350 mg/g

SMILES: N[C@@H](Cc1c[nH]c2ccccc12)C(=O)O [Tryptophan]
- Loading ([1]; maximum loading): 350 mg/g

SMILES: CN(C)c1ccc2nc3ccc(=[N+](C)C)cc-3sc2c1 [Methylene blue]
- Loading [1, 3]: 10 mg/g

SMILES: O=C1O[C@H]([C@@H](O)CO)C(O)=C1O [Ascorbic acid]
- Loading ([1]; maximum loading): 350 mg/g

SMILES: C=C[C@H]1C[N@@]2CC[C@H]1C[C@H]2[C@H](O)c1ccnc2ccc(OC)cc12 [Quinine sulphate]
- Loading [1, 3]: 10 mg/g

SMILES: N[C@@H](Cc1c[nH]cn1)C(=O)O [Histidine]
- Mean MPE (3T3): −0.016
- Mean PIF (3T3): 1.0
- IC50 (3T3; [4]): > 1000 µg/mL
- IC50 (3T3; [5]): > 1000 µg/mL
